From ChEMBL document CHEMBL1138919, “Binding of methoxy-substituted N1-benzenesulfonylindole analogs at human 5-HT6 serotonin receptors” (Bioorg Med Chem Lett, 2006)

Molecular target: 5-hydroxytryptamine receptor 6 (Homo sapiens, UniProt P50406)
Test: Binding affinity to human 5HT6 receptor

Sequence of 5-hydroxytryptamine receptor 6 (P50406 whole entry): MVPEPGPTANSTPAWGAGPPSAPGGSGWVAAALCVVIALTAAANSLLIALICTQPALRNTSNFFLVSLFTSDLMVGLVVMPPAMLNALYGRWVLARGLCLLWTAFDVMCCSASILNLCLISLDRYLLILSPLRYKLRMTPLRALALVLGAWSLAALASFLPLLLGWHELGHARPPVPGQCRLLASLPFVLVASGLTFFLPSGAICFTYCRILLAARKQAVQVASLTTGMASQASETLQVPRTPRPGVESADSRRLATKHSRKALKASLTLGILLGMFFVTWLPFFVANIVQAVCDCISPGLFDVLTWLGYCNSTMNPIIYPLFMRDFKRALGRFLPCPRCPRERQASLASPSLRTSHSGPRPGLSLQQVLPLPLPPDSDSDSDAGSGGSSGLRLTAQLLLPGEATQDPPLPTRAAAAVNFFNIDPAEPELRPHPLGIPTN

| SMILES | Ki |
| --- | --- |
| CNc1ccc2c3c(n(S(=O)(=O)c4ccc(N)cc4)c2c1)CCCC3 | 0.205 µM |
| COc1cc(OC)c2ccn(S(=O)(=O)c3ccc(N)cc3)c2c1 | 0.0008 µM |
| CNc1cccc2c1c1c(n2S(=O)(=O)c2ccc(N)cc2)CCCC1 | 0.165 µM |

Now from value to compound:

| Ki | SMILES |
| --- | --- |
| 0.21 µM | COc1cc(OC)c2c3c(n(S(=O)(=O)c4ccc(N)cc4)c2c1)CCCC3 |
| 0.0033 µM | COc1cccc2c1ccn2S(=O)(=O)c1ccc(N)cc1 |
| 0.0018 µM | COc1ccc2ccn(S(=O)(=O)c3ccc(N)cc3)c2c1 |
